Data published in US20220298135A1, “5-HETEROARYL-PYRIDIN-2-AMINE COMPOUNDS AS NEUROPEPTIDE FF RECEPTOR ANTAGONISTS” (Domain Therapeutics, priority 2019, published 2022).

Experiments:
[1] = target: T1, human NPFFR1 (hNPFFR1) receptor (Homo sapiens, UniProt Q9GZQ6); experiment: Human NPFFR1 evaluation using BRET biosensors (antagonist IC50); assay type: cell-based; settings: hNPFFR1 transiently over-expressed in HEK-293 T cells; BRET signal; stimulation by EC80 RFRP-3
T1 construct: expressed in transfected cells; host or cells: HEK-293 T cells, transient co-transfection with polyethylenimine
Method in brief: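 HEK-293T cells co-transfected with receptor, GαoB and Gi-effector BRET biosensor pair, assayed 48 h later. Compound 10 min, then EC80 RFRP-3 with 10 min luminescence read; IC50 from 20-concentration variable-slope fit, duplicate, two independent experiments.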

[2] = system: morphine-induced hyperalgesia; experiment: Morphine-induced hyperalgesia model in the mouse (tail immersion test); assay type: in vivo; settings: 10 mg/kg s.c.; morphine 10 mg/kg s.c. daily during 8 days; male C57/B16N mice; tail immersion test 47° C.
Experimental: This method, which detects opioid-induced hyperalgesia, follows those well-known by one skilled in the art and described in the literature (Elhabazi K et al., J Vis Exp. 2014; (89):e51264). The procedure applied to the compounds of the invention is as follows:
Nociceptive thresholds are assessed using the tail immersion test (TIT). After TIT, mice are treated daily during 8 consecutive days with morphine (10 mg/kg, sub-cutaneous s.c.) +/− tested compounds (10 mg/kg, s.c.) 20 min before morphine injection for example 31 and 32 and twice a day for examples 56 and 143 (20 min before morphine injection, and in the afternoon).
Mice used were male C57/B16N 8 weeks old at the beginning of the experiment. During TIT the tail of the animal is immersed two-thirds in a water bath at 47° C. and the withdrawal latency is recorded in seconds. The cutoff is 25 seconds, to avoid tissue damage. After TIT mice received an injection depending on their group then are replaced to their home cages.
FIGS. 1A and 1B show the mean time of tail withdrawal latency in each group of animals. The anti-hyperalgesia effect of the tested compounds was compared to vehicle-treated group using ANOVA test followed by the Bonferroni's test.

[3] = system: hyperalgesia induced by the repeated administration of opiate analgesics; settings: administered in vivo in the rat; cited from earlier work

T1 sequence (Q9GZQ6 whole entry): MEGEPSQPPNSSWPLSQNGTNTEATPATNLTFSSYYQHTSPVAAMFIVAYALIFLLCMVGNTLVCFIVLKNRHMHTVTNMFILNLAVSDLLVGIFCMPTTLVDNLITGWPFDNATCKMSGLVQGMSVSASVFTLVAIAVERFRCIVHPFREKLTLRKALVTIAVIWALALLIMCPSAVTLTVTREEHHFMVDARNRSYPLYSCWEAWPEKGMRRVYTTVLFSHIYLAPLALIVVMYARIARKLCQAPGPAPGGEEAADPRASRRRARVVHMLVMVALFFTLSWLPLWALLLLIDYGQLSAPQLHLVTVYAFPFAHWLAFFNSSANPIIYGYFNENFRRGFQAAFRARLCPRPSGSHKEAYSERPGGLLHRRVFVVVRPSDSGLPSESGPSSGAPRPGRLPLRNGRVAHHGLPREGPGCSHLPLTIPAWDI

Row | Compound | IC50 [1] | blockade of morphine-induced hyperalgesia (tail withdrawal latency) [2] | melting point | antihyperalgesic activity [3]
1 | CCc1nc(N)ccc1-c1c(F)ccc2cc(F)cnc12.Cl [Example 143, 5-(3,7-difluoroquinolin-8-yl)-6-ethylpyridin-2-amine] | < 100 nM | significant blockade of morphine-induced hyperalgesia | 245 to 250 °C | 
2 | Na-adamantan-1-yl-L-Arg-L-Phe-NH2 acetate [RF9] |  |  |  | antihyperalgesic activity
3 | CCc1nc(N)ccc1-c1c(F)cc(F)c2ccc(=O)[nH]c12.Cl [Example 159, 8-(6-amino-2-ethylpyridin-3-yl)-5,7-difluoroquinolin-2(1H)-one] | 100 to 1000 nM |  | > 250 °C | 
4 | CCc1nc(N)ccc1-c1cccc2ccc(C)nc12.Cl [Example 90, 6-ethyl-5-(2-methylquinolin-8-yl)pyridin-2-amine] | < 100 nM |  | 110 to 150 °C | 
5 | CCc1nc(N)ccc1-c1cccc2ccc(C(=O)NC3CCOCC3)nc12.Cl [Example 173, 8-(6-amino-2-ethylpyridin-3-yl)-N-(tetrahydro-2H-pyran-4-yl)quinoline-2-carboxamide] | < 100 nM |  | 112 to 125 °C | 
6 | CCc1nc(N)ccc1-c1cccc2ccc(C(=O)NCc3ccccc3)nc12.Cl [Example 174, 8-(6-amino-2-ethylpyridin-3-yl)-N-benzylquinoline-2-carboxamide] | < 100 nM |  | 102 to 114 °C | 
7 | CCCc1nc(N)ccc1-c1cccc2cccnc12.Cl [Example 8, 6-Propyl-5-(8-quinolyl)pyridin-2-amine] | < 100 nM |  | 80 to 120 °C | 
8 | CCc1nc(N)ccc1-c1cccc2nccnc12.Cl [Example 101, 6-ethyl-5-(quinoxalin-5-yl)pyridin-2-amine] | 100 to 1000 nM |  | > 250 °C | 
9 | Cl.Nc1ccc(-c2cccc3ccc(=O)[nH]c23)c(N)n1 [Example 56, 8-(2,6-diaminopyridin-3-yl)quinolin-2(1H)-one] | < 100 nM | significant blockade of morphine-induced hyperalgesia | > 250 °C | 
10 | Nc1ccc(-c2csc3ccc(F)cc23)c(N)n1 [Example 22, 3-(5-Fluoro-benzo[b]thiophen-3-yl)pyridine-2,6-diamine] | 100 to 1000 nM |  | 116 to 118 °C | 
11 | Cc1cc(-c2ccc(N)nc2N)c2ncccc2c1.Cl [Example 53, 3-(6-methylquinolin-8-yl)pyridine-2,6-diamine] | < 100 nM |  | 180 to 200 °C | 
12 | Cl.Nc1ccc(-c2ccccc2-c2ccc(N3CCOCC3)nc2)c(N)n1 [Example 46, 3-[2-(6-morpholino-3-pyridyl)phenyl]pyridine-2,6-diamine] | < 100 nM |  | 180 to 210 °C | 
13 | CCc1nc(N)ccc1-c1ccc(C)c2cccnc12.Cl [Example 96, 6-ethyl-5-(5-methylquinolin-8-yl)pyridin-2-amine] | 100 to 1000 nM |  | > 250 °C | 
14 | Nc1ccc(-c2cccc3cnccc23)c(N)n1 [Example 33, 3-(5-Isoquinolyl)pyridine-2,6-diamine] | 100 to 1000 nM |  | > 250 °C | 
15 | Cn1cc(-c2ccc(N)nc2N)c2ccccc21 [Example 16, 3-(1-Methylindol-3-yl)pyridine-2,6-diamine] | > 1000 nM |  | 47 to 55 °C | 
16 | CC(C)Cc1nc(N)ccc1-c1c(F)ccc2cccnc12.Cl [Example 70, 5-(7-fluoroquinolin-8-yl)-6-isobutylpyridin-2-amine] | < 100 nM |  | 130 to 170 °C | 
17 | Nc1ccc(-c2coc3ccccc23)c(N)n1 [Example 20, 3-(Benzofuran-3-yl)pyridine-2,6-diamine] | 100 to 1000 nM |  | 109 to 112 °C | 
18 | CCc1nc(N)ccc1-c1c(F)ccc2ccc(N3CCCOCC3)nc12.Cl [Example 134, 6-ethyl-5-(7-fluoro-2-(1,4-oxazepan-4-yl)quinolin-8-yl)pyridin-2-amine] | < 100 nM |  | 100 to 150 °C | 
